Laboratory results reported in BigSolDB 2.1.

A solubility (mole fraction) (in DMF, 278.15 K) of 0.00568, a solubility (mole fraction) (in DMF, 283.15 K) of 0.00686 and a solubility (mole fraction) (in DMF, 288.15 K) of 0.00824 were found for `Cn1c(=O)cc(N2CCC[C@@H](N)C2)n(Cc2ccccc2C#N)c1=O.O=C(O)c1ccccc1` in this work. The solubility (mole fraction) (in DMF, 293.15 K) was 0.00984, the solubility (mole fraction) (in DMF, 298.15 K) was 0.0117 and the solubility (mole fraction) (in DMF, 303.15 K) was 0.0138. It also gave a solubility (mole fraction) (in DMF, 308.15 K) of 0.0162, a solubility (mole fraction) (in DMF, 313.15 K) of 0.019 and a solubility (mole fraction) (in DMF, 318.15 K) of 0.0222. The solubility (mole fraction) (in acetone, 278.15 K) was 0.00259, the solubility (mole fraction) (in acetone, 283.15 K) was 0.00293 and the solubility (mole fraction) (in acetone, 288.15 K) was 0.00331. The solubility (mole fraction) (in acetone, 293.15 K) was 0.00373, the solubility (mole fraction) (in acetone, 298.15 K) was 0.00419 and the solubility (mole fraction) (in acetone, 303.15 K) was 0.0047. For the same molecule, the solubility (mole fraction) (in acetone, 308.15 K) was 0.00525, the solubility (mole fraction) (in acetone, 313.15 K) was 0.00587 and the solubility (mole fraction) (in acetone, 318.15 K) was 0.00654. It also gave a solubility (mole fraction) (in acetonitrile, 278.15 K) of 0.000102, a solubility (mole fraction) (in acetonitrile, 283.15 K) of 0.000145 and a solubility (mole fraction) (in acetonitrile, 288.15 K) of 0.000175. It also gave a solubility (mole fraction) (in acetonitrile, 293.15 K) of 0.000228, a solubility (mole fraction) (in acetonitrile, 298.15 K) of 0.000292 and a solubility (mole fraction) (in acetonitrile, 303.15 K) of 0.000368. The solubility (mole fraction) (in acetonitrile, 308.15 K) was 0.000475, the solubility (mole fraction) (in acetonitrile, 313.15 K) was 0.000583 and the solubility (mole fraction) (in acetonitrile, 318.15 K) was 0.000725. The solubility (mole fraction) (in ethanol, 278.15 K) was 0.000355, the solubility (mole fraction) (in ethanol, 283.15 K) was 0.000447 and the solubility (mole fraction) (in ethanol, 288.15 K) was 0.000554. For the same molecule, the solubility (mole fraction) (in ethanol, 293.15 K) was 0.000682, the solubility (mole fraction) (in ethanol, 298.15 K) was 0.000822 and the solubility (mole fraction) (in ethanol, 303.15 K) was 0.00102. It also gave a solubility (mole fraction) (in ethanol, 308.15 K) of 0.00122, a solubility (mole fraction) (in ethanol, 313.15 K) of 0.00147 and a solubility (mole fraction) (in ethanol, 318.15 K) of 0.00176. The solubility (mole fraction) (in isopropanol, 278.15 K) was 1.9e-05, the solubility (mole fraction) (in isopropanol, 283.15 K) was 3e-05 and the solubility (mole fraction) (in isopropanol, 288.15 K) was 4.2e-05. For the same molecule, the solubility (mole fraction) (in isopropanol, 293.15 K) was 6.3e-05, the solubility (mole fraction) (in isopropanol, 298.15 K) was 8.8e-05 and the solubility (mole fraction) (in isopropanol, 303.15 K) was 0.000127. It also gave a solubility (mole fraction) (in isopropanol, 308.15 K) of 0.000175, a solubility (mole fraction) (in isopropanol, 313.15 K) of 0.000244 and a solubility (mole fraction) (in isopropanol, 318.15 K) of 0.000334. The solubility (mole fraction) (in methanol, 278.15 K) was 0.00239, the solubility (mole fraction) (in methanol, 283.15 K) was 0.00269 and the solubility (mole fraction) (in methanol, 288.15 K) was 0.00302. The solubility (mole fraction) (in methanol, 293.15 K) was 0.00339, the solubility (mole fraction) (in methanol, 298.15 K) was 0.00379 and the solubility (mole fraction) (in methanol, 303.15 K) was 0.00423. For the same molecule, the solubility (mole fraction) (in methanol, 308.15 K) was 0.00472, the solubility (mole fraction) (in methanol, 313.15 K) was 0.00525 and the solubility (mole fraction) (in methanol, 318.15 K) was 0.00583. For the same molecule, the solubility (mole fraction) (in n-propanol, 278.15 K) was 6.1e-05, the solubility (mole fraction) (in n-propanol, 283.15 K) was 8.2e-05 and the solubility (mole fraction) (in n-propanol, 288.15 K) was 0.000113. The solubility (mole fraction) (in n-propanol, 293.15 K) was 0.000156, the solubility (mole fraction) (in n-propanol, 298.15 K) was 0.000209 and the solubility (mole fraction) (in n-propanol, 303.15 K) was 0.000278. It also gave a solubility (mole fraction) (in n-propanol, 308.15 K) of 0.000367, a solubility (mole fraction) (in n-propanol, 313.15 K) of 0.000477 and a solubility (mole fraction) (in n-propanol, 318.15 K) of 0.000621. It also gave a solubility (mole fraction) (in water, 278.15 K) of 0.000838, a solubility (mole fraction) (in water, 283.15 K) of 0.000915 and a solubility (mole fraction) (in water, 288.15 K) of 0.000999. The solubility (mole fraction) (in water, 293.15 K) was 0.00109, the solubility (mole fraction) (in water, 298.15 K) was 0.00119 and the solubility (mole fraction) (in water, 303.15 K) was 0.00129. The solubility (mole fraction) (in water, 308.15 K) was 0.0014, the solubility (mole fraction) (in water, 313.15 K) was 0.00153 and the solubility (mole fraction) (in water, 318.15 K) was 0.00166.
